In ChEMBL document CHEMBL1134950, “Retro-binding thrombin active site inhibitors: identification of an orally active inhibitor of thrombin catalytic activity” (Bioorg Med Chem Lett, 2002):

Legend:
Coagulation factor X = Coagulation factor X (Homo sapiens, UniProt P00742); experiment: Concentration required to inhibit Coagulation factor X was determined
Mus musculus [1] = experiment: Efficacy required to inhibit thrombin was determined after 10 min of intravenous administration in the mouse thrombin challenge model; format: functional
Mus musculus [2] = experiment: Efficacy required to inhibit thrombin was determined after 1 hr of intravenous administration in the mouse thrombin challenge model; format: functional
Mus musculus [3] = experiment: Efficacy required to inhibit thrombin was determined after 1 hr of oral administration in the mouse thrombin challenge model; format: functional
Plasminogen = Plasminogen (Homo sapiens, UniProt P00747); experiment: Concentration required to inhibit Plasmin was determined
Prothrombin [4] = target: T1, Prothrombin (Homo sapiens, UniProt P00734); experiment: Concentration required to inhibit thrombin was determined
Serine protease 1 = target: T2, Serine protease 1 (Bos taurus, UniProt P00760); experiment: Concentration required to inhibit Trypsin was determined
T2 sequence (P00760 whole entry): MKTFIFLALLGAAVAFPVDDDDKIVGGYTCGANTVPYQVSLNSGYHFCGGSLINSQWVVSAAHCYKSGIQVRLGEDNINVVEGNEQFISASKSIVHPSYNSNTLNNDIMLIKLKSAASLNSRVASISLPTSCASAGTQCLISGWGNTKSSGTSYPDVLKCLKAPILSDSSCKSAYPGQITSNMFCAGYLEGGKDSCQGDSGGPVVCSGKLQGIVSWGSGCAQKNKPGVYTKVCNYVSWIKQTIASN

[5] = target: T3, Tissue-type plasminogen activator (Homo sapiens, UniProt P00750); experiment: Concentration required to inhibit tissue-type plasminogen activator (t-PA) was determined
Prothrombin [6] = target: T1, Prothrombin; experiment: Concentration required to inhibit Human alpha-thrombin was determined
Prothrombin [7] = target: T1, Prothrombin; experiment: Inhibitory constant of thrombin catalytic activity was determined
[8] = target: T3, Tissue-type plasminogen activator; experiment: Concentration required to inhibit Tissue-type plasminogen activator (t-PA) was determined

Sequence of Plasminogen (P00747 97-580 limits assumed): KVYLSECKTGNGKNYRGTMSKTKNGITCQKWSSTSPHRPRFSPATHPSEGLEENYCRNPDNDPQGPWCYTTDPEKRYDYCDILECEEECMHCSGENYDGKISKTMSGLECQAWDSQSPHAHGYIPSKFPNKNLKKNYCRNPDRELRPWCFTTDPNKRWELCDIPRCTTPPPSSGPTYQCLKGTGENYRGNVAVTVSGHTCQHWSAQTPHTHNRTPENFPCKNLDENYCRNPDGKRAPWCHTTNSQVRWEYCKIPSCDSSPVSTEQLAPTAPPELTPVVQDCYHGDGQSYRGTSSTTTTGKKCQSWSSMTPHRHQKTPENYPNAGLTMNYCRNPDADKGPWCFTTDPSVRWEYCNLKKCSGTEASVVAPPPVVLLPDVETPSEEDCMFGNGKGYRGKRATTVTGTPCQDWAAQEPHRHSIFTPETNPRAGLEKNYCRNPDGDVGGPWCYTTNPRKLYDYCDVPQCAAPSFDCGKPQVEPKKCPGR
Sequence of Plasminogen (P00747 581-810 limits assumed): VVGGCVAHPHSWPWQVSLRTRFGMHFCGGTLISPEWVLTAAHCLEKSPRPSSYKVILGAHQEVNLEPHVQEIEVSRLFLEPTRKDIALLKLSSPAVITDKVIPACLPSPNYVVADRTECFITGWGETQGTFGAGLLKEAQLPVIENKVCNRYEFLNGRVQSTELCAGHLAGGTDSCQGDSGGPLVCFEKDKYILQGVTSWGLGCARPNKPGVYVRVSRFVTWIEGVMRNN
Sequence of Coagulation factor X (P00742 41-179 limits assumed): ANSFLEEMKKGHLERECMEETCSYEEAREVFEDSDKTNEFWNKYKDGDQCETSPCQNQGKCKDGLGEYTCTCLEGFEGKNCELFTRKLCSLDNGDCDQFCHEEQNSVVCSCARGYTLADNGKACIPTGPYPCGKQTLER
Sequence of Coagulation factor X (P00742 235-488 limits assumed): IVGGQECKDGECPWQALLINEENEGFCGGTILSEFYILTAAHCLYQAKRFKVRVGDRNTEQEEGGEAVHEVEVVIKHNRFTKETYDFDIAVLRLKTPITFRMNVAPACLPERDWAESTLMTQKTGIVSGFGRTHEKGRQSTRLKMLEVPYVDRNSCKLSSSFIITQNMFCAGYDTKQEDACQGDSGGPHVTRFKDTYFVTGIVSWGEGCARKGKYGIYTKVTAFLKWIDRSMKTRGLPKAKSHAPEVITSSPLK
T3 sequence (P00750 whole entry): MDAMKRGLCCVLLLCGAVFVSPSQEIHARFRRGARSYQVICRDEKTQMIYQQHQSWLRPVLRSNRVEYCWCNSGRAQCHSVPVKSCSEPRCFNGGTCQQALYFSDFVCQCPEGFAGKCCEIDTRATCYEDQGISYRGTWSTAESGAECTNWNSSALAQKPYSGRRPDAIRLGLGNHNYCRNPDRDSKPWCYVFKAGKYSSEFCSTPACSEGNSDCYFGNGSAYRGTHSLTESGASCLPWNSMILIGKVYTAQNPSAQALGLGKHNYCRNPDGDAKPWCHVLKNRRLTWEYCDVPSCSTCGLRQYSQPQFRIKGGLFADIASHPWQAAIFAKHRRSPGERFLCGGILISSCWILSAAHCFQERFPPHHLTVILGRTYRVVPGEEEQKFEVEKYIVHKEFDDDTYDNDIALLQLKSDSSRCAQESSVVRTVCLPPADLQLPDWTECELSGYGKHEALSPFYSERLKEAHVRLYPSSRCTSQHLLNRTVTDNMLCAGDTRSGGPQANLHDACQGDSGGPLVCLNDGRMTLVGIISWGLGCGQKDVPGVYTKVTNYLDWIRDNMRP

Structure (SMILES): CC(O)[C@@H](C(=O)N[C@H](C)c1ccccc1)N(C)C(=O)[C@H](Cc1ccc([N+](=O)[O-])cc1)NC(=O)CCCN=C(N)N (some centres not stated)
- IC50 (Coagulation factor X): 4600 nM
- ED50 (Mus musculus [1]): 0.21 mg/kg
- ED50 (Mus musculus [2]): 2.2 mg/kg
- ED50 (Mus musculus [3]): 23 mg/kg
- IC50 (Plasminogen): 230 nM
- IC50 (Prothrombin [4]): 8 nM
- IC50 (Serine protease 1): 8 nM
- IC50 [5]: 700 nM

Structure (SMILES): CC(O)[C@H](NC(=O)[C@H](Cc1ccc([N+](=O)[O-])cc1)NC(=O)CCCN=C(N)N)C(=O)N[C@H](CO)c1ccccc1 (some centres not stated)
- IC50 (Prothrombin [6]): 19 nM

Structure (SMILES): CC(O)[C@H](NC(=O)[C@H](Cc1ccc([N+](=O)[O-])cc1)NC(=O)CCCN=C(N)N)C(N)=O (some centres not stated)
- IC50 (Prothrombin [6]): 230000 nM

Structure (SMILES): COC(=O)[C@@H](NC(=O)[C@@H](NC(=O)[C@H](Cc1ccc([N+](=O)[O-])cc1)NC(=O)CCCN=C(N)N)C(C)O)C1CCCCC1 (some centres not stated)
- IC50 (Prothrombin [6]): 16 nM

Structure (SMILES): CC(O)[C@H](NC(=O)[C@H](Cc1ccc([N+](=O)[O-])cc1)NC(=O)CCCN=C(N)N)C(=O)N[C@@H](C)c1ccccc1 (some centres not stated)
- IC50 (Prothrombin [6]): 310 nM

Structure (SMILES): CC(O)[C@H](NC(=O)[C@H](Cc1ccc([N+](=O)[O-])cc1)NC(=O)CCCN=C(N)N)C(=O)N[C@H](C)c1ccccc1 (some centres not stated)
- IC50 (Prothrombin [6]): 72 nM

Structure (SMILES): COC(=O)[C@@H](NC(=O)[C@@H](NC(=O)[C@H](Cc1ccc([N+](=O)[O-])cc1)NC(=O)CCCN=C(N)N)C(C)O)c1ccccc1 (some centres not stated)
- IC50 (Prothrombin [6]): 8.3 nM

Structure (SMILES): CC(O)[C@H](NC(=O)[C@H](Cc1ccc([N+](=O)[O-])cc1)NC(=O)CCCN=C(N)N)C(=O)N[C@@H](C)Cc1ccccc1 (some centres not stated)
- IC50 (Prothrombin [6]): 260 nM

Structure (SMILES): CC(O)[C@H](NC(=O)[C@H](Cc1ccc([N+](=O)[O-])cc1)NC(=O)CCCN=C(N)N)C(=O)N[C@H](C(=O)O)C1CCCCC1 (some centres not stated)
- IC50 (Prothrombin [6]): 55 nM

Structure (SMILES): CC(O)[C@H](NC(=O)[C@H](Cc1ccc([N+](=O)[O-])cc1)NC(=O)CCCN=C(N)N)C(=O)N[C@H](CO)C1CCCCC1 (some centres not stated)
- IC50 (Prothrombin [6]): 19 nM

Structure (SMILES): CC(O)[C@H](NC(=O)[C@H](Cc1ccc([N+](=O)[O-])cc1)NC(=O)CCCN=C(N)N)C(=O)N[C@H](C)Cc1ccccc1 (some centres not stated)
- IC50 (Prothrombin [6]): 43 nM

Structure (SMILES): CN[C@H](Cc1ccccc1)C(=O)N1CCC[C@H]1C(=O)N[C@H](C=O)CCCNC(=N)N [EFEGATRAN]
- IC50 (Coagulation factor X): 16000 nM
- ED50 (Mus musculus [1]): 0.04 mg/kg
- ED50 (Mus musculus [2]): 3 mg/kg
- ED50 (Mus musculus [3]): 44 mg/kg
- IC50 (Plasminogen): 25000 nM
- Ki (Prothrombin [7]): 7 nM
- IC50 [8]: 34000 nM
- IC50 (Prothrombin [4]): 30 nM
- IC50 (Serine protease 1): 45 nM
